# Values quoted from earlier work in patent US11382865B2, “Pharmaceutical preparation and method for its manufacture” (BAYER ANIMAL HEALTH GMBH, priority 2016, dated 2022).
# How the values were obtained:
# [1] = test system: parasitic worms (helminths); conditions: veterinary parasiticide
structure (smiles),measurement,setting,value
CO/N=C1\C[C@]2(C[C@@H]3C[C@@H](C/C=C(\C)C[C@@H](C)/C=C/C=C4\CO[C@@H]5[C@H](O)C(C)=C[C@@H](C(=O)O3)[C@]45O)O2)O[C@H](/C(C)=C/C(C)C)[C@H]1C [Moxidectin],Solubility in organic solvents,organic solvents,readily soluble
same,Solubility in water,water,practically insoluble
same,Dose at which active,[1],< 25 μg/kg body weight
